Test results: the supplement of paper PMC11821682

Assays:
[1] = test system: Danio rerio embryo; assay: LEL larval photomotor response dark phase 120 hpf
Protocol: (§1)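 ZBEscreen: dechorionated Tropical 5D zebrafish embryos were exposed from 4 hpf in 96-well plates (1% DMSO, 28 °C). All compounds were first tested at 100 µM; hits were retested at 0.005-100 µM. Morphology and mortality were scored at 120 hpf and fitted as BMC10 (3-parameter log-logistic, extra risk). The embryonic photomotor response at 24 hpf and the larval photomotor response at 120 hpf are given as lowest effect levels (K-S test, p<0.01). NA = not significant up to 100 µM; NT = not tested.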

[2] = test system: Danio rerio embryo; assay: BMC10 mortality 24-120 hpf; higher = less toxic
Protocol: as §1

[3] = test system: Danio rerio embryo; assay: BMC10 any morphological effect or mortality at 120 hpf; higher = less toxic
[4] = test system: HL-60; assay: Cell Health Index (toxicity pseudo-probability over dose series) (index 0-1); higher = more cytotoxic / cell stress;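 note: HL-60 cells exposed 4 h at 37 °C to ten threefold dilutions spanning 5 nM to 100 µM, multiparametric flow cytometry features scored by machine-learning classification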
[5] = test system: Danio rerio embryo; assay: LEL embryonic photomotor response 24 hpf
Protocol: as §1

| SMILES | LEL larval photomotor response dark phase 120 hpf [1] | BMC10 mortality 24-120 hpf [2] | BMC10 any morphological effect or mortality [3] | Cell Health Index [4] | LEL embryonic photomotor response 24 hpf [5] |
| --- | --- | --- | --- | --- | --- |
| Cl.Cl.OCCOCCN1CCN(Cc2cccc(Oc3ccccc3)c2)CC1 | 33.3 µM | 43.1 µM | 36.5 µM | 0.385 | 33.3 µM |
| CC(C)[C@H](NC(=O)[C@H](CCCNC(=N)N)NC(=O)NC(Cc1ccccc1)C(=O)O)C(=O)NC(C=O)CCCNC(=N)N.Cl.Cl (some centres undefined) [Antipain] | > 100 µM | – | > 100 µM | 0.154 | > 100 µM |
| O=c1cc(-c2ccc(O)cc2)oc2cc(O)cc(O)c12 [Apigenin] | > 100 µM | – | > 100 µM | 0.288 | > 100 µM |
| COc1cc(C[C@H]2C(=O)OC[C@@H]2Cc2ccc(OC)c(OC)c2)ccc1O [Arctigenin] | 3.7 µM | – | > 100 µM | 0.617 | > 100 µM |
| O=C1NC(=O)c2c1c1c3ccccc3[nH]c1c1[nH]c3ccccc3c21 [Arcyriaflavin A] | > 100 µM | – | 1.1 µM | 0.393 | > 100 µM |
| CO[C@H]1O[C@@H]2O[C@@]3(C)CC[C@H]4[C@H](C)CC[C@@H]([C@H]1C)[C@@]24OO3 [Artemether] | 0.41 µM | – | 3.55 µM | 0.289 | 11.1 µM |
| C[C@@H]1CC[C@H]2[C@@H](C)C(=O)O[C@@H]3O[C@@]4(C)CC[C@@H]1[C@]32OO4 [Artemisinin] | 3.7 µM | – | 39.4 µM | 0.169 | 33.3 µM |
| C=C[C@@H]1C[C@]1(NC(=O)[C@@H]1C[C@H](Oc2ncc(OC)c3ccc(Cl)cc23)CN1C(=O)[C@@H](NC(=O)OC(C)(C)C)C(C)(C)C)C(=O)NS(=O)(=O)C1CC1 [Asunaprevir] | 3.7 µM | – | > 100 µM | 0.536 | 11.1 µM |
| CC(=O)O/N=C1/C(=C2\C(=O)Nc3cc(Br)ccc32)Nc2ccccc21 [BIO-Acetoxime] | 33.3 µM | – | > 100 µM | 0.715 | > 100 µM |
| O=c1cc(-c2ccccc2)oc2cc(O)c(O)c(O)c12 [Baicalein] | > 100 µM | – | > 100 µM | 0.551 | > 100 µM |
| C=C(C)[C@@H]1CC[C@]2(C(=O)O)CC[C@]3(C)[C@H](CC[C@@H]4[C@@]5(C)CC[C@H](O)C(C)(C)[C@@H]5CC[C@]43C)[C@@H]12 [Betulinic acid] | 100 µM | – | > 100 µM | 0.4 | > 100 µM |
| C[C@H]1CO[C@@H]2Cn3cc(C(=O)NCc4ccc(F)cc4F)c(=O)c(O)c3C(=O)N12 [Cabotegravir] | > 100 µM | – | > 100 µM | 0.321 | > 100 µM |
| OC[C@H]1O[C@@H](O[C@@H]2OC=C[C@H]3[C@H](O)[C@@H]4O[C@]4(CO)[C@@H]23)[C@H](O)[C@@H](O)[C@@H]1O [Catalpol] | > 100 µM | – | > 100 µM | 0.184 | > 100 µM |
| O=C(OC[C@H]1O[C@@H](OC(=O)c2cc(O)c(O)c(OC(=O)c3cc(O)c(O)c(O)c3)c2)[C@H](OC(=O)c2cc(O)c(O)c(OC(=O)c3cc(O)c(O)c(O)c3)c2)[C@@H](OC(=O)c2cc(O)c(O)c(OC(=O)c3cc(O)c(O)c(O)c3)c2)[C@@H]1OC(=O)c1cc(O)c(O)c(OC(=O)c2cc(O)c(O)c(O)c2)c1)c1cc(O)c(O)c(OC(=O)c2cc(O)c(O)c(O)c2)c1 [Chinese Gallotannin] | > 100 µM | – | 32.8 µM | 0.935 | 100 µM |
| CC(C)c1nc(CN(C)C(=O)N[C@@H](CCN2CCOCC2)C(=O)N[C@H](CC[C@H](Cc2ccccc2)NC(=O)OCc2cncs2)Cc2ccccc2)cs1 [Cobicistat] | > 100 µM | – | > 100 µM | 0.831 | > 100 µM |
| Cl.N=c1ccn2c(n1)O[C@H]1[C@H](O)[C@@H](CO)O[C@H]12 [Cyclocytidine] | > 100 µM | – | > 100 µM | 0.207 | > 100 µM |
| C/C=C/C[C@@H](C)[C@@H](O)[C@H]1C(=O)N[C@@H]([C@@H](C)O)C(=O)N(C)CC(=O)N(C)[C@@H](CC(C)C)C(=O)N[C@@H](C(C)C)C(=O)N(C)[C@@H](CC(C)C)C(=O)N[C@@H](C)C(=O)N[C@H](C)C(=O)N(C)[C@@H](CC(C)C)C(=O)N(C)[C@@H](CC(C)C)C(=O)N(C)[C@@H](C(C)C)C(=O)N1C [Cyclosporin C] | 3.7 µM | – | > 100 µM | 0.918 | 33.3 µM |
| S=C([S-])OC1CC2CC1C1CCCC21.[K+] (centres undefined) [D609 parent] | > 100 µM | – | > 100 µM | 0.277 | > 100 µM |
| C[C@H](NC(=O)Cc1cc(F)cc(F)c1)C(=O)N[C@@H]1C(=O)N(C)c2ccccc2-c2ccccc21 [DBZ] | 0.41 µM | – | 0.365 µM | 0.293 | 11.1 µM |
| C[C@@H]1CCO[C@H]2Cn3cc(C(=O)NCc4ccc(F)cc4F)c(=O)c(O)c3C(=O)N12 [Dolutegravir] | > 100 µM | – | > 100 µM | 0.167 | > 100 µM |
| CC(C)C[C@H](NC(=O)[C@H]1O[C@@H]1C(=O)O)C(=O)NCCCCNC(=N)N [E-64] | > 100 µM | – | > 100 µM | 0.121 | > 100 µM |
| Cc1cc(C#N)cc(C)c1Oc1nc(Nc2ccc(C#N)cc2)nc(N)c1Br [Etravirine] | > 100 µM | – | > 100 µM | 0.898 | > 100 µM |
| COc1ccc(-c2coc3cc(O)ccc3c2=O)cc1 [Formononetin] | > 100 µM | – | 23 µM | 0.288 | 100 µM |
| O=C(NCc1ccco1)c1ccc2c(c1)N(Cc1c(F)cccc1Cl)C(=O)CS2 [G10] | > 100 µM | – | > 100 µM | 0.311 | 11.1 µM |
| CCOC(=O)c1ccc(OC(=O)CCCCCNC(=N)N)cc1.CS(=O)(=O)O [Gabexate] | > 100 µM | – | > 100 µM | 0.22 | > 100 µM |
| CCS(=O)(=O)Nc1ccc2c(c1)/C(=C(/Nc1ccc(CN3CCCCC3)cc1)c1ccccc1)C(=O)N2 [Hesperadin] | > 100 µM | – | 2.02 µM | 0.882 | 3.7 µM |

| SMILES | LEL larval photomotor response dark phase 120 hpf [1] | BMC10 mortality 24-120 hpf [2] | BMC10 any morphological effect or mortality [3] | Cell Health Index [4] | LEL embryonic photomotor response 24 hpf [5] |
| --- | --- | --- | --- | --- | --- |
| OC1=CC(OC)=C(C(CC(C2=CC=C(O)C=C2)O3)=O)C3=C1C/C=C(C)/C (centres undefined) [Isoxanthohumol] | > 100 µM | – | > 100 µM | 0.183 | > 100 µM |
| CCC(=O)c1ccc(F)c([C@@H]2C[C@@H]2NC(=O)Nc2ccc(C#N)cn2)c1O [MIV-150] | > 100 µM | – | > 100 µM | 0.306 | > 100 µM |
| CC(C)(C)C1=C(O)C(C(C)(C)C)=CC(/C=C(C#N)\C#N)=C1 [Malonoben] | > 100 µM | – | > 100 µM | 0.861 | 0.14 µM |
| O=C1CCC[C@@H]2[C@H]3CCCN4CCC[C@@H](CN12)[C@@H]34 [Matrine] | > 100 µM | – | > 100 µM | 0.14 | > 100 µM |
| CC1(C)CC(NC(=O)C(=O)Nc2ccc(Cl)cc2)CC(C)(C)N1 [NBD-556] | 11.1 µM | – | 45.7 µM | 0.302 | 100 µM |
| CS(=O)(=O)O.CS(=O)(=O)O.N=C(N)Nc1ccc(C(=O)Oc2ccc3cc(C(=N)N)ccc3c2)cc1 [Nafamostat] | > 100 µM | – | > 100 µM | 0.422 | > 100 µM |
| COc1cc(-c2oc3cc(O)cc(O)c3c(=O)c2O[C@@H]2O[C@H](CO[C@@H]3O[C@@H](C)[C@H](O)[C@@H](O)[C@H]3O)[C@@H](O)[C@H](O)[C@H]2O)ccc1O [Narcissoside] | > 100 µM | – | > 100 µM | 0.248 | > 100 µM |
| CCC(CC)O[C@@H]1C=C(C(=O)O)C[C@H](N)[C@H]1NC(C)=O [Oseltamivir acid] | > 100 µM | – | > 100 µM | 0.174 | 0.046 µM |
| CC(=O)c1c(O)cc(O)cc1O.O [Phloroacetophenone] | > 100 µM | – | > 100 µM | 0.231 | > 100 µM |
| COc1cc(NC(C)CCCN)c2ncccc2c1.O=P(O)(O)O.O=P(O)(O)O (centres undefined) [Primaquine] | > 100 µM | – | > 100 µM | 0.352 | > 100 µM |
| CC(C)(Sc1cc(C(C)(C)C)c(O)c(C(C)(C)C)c1)Sc1cc(C(C)(C)C)c(O)c(C(C)(C)C)c1 [Probucol] | > 100 µM | – | > 100 µM | 0.134 | 0.005 µM |
| Oc1cc(O)c2c(c1)O[C@H](c1ccc(O)c(O)c1)[C@H](O)[C@H]2c1c(O)cc(O)c2c1O[C@H](c1ccc(O)c(O)c1)[C@@H](O)C2 [Procyanidin B1] | > 100 µM | – | > 100 µM | 0.406 | > 100 µM |
| O=c1ccc2cc3ccoc3cc2o1 [Psoralen] | 33.3 µM | – | 29.2 µM | 0.105 | 100 µM |
| O.O=c1c(O)c(-c2ccc(O)c(O)c2)oc2cc(O)cc(O)c12 [Quercetin] | > 100 µM | – | > 100 µM | 0.461 | > 100 µM |
| C=C[C@H]1C[N@@]2CC[C@H]1C[C@@H]2[C@@H](O)c1ccnc2ccc(OC)cc12 [Quinidine] | > 100 µM | – | > 100 µM | 0.197 | > 100 µM |
| FC(F)(F)c1cc(C(F)(F)F)c2ccc3nc(-c4nnco4)cn3c2n1 [RO8191] | 11.1 µM | – | 26.9 µM | 0.274 | 11.1 µM |
| O=C(Nc1ccccc1F)N[C@H]1N=C(c2ccccc2)c2ccccc2NC1=O [RSV-604] | > 100 µM | – | > 100 µM | 0.368 | > 100 µM |
| Cc1ccc(C2Nc3ccccc3C(=O)N2c2ccccc2)s1 (centres undefined) [Retro-2] | > 100 µM | – | 0.795 µM | 0.241 | 0.14 µM |
| O=C(Nc1c(Cl)cncc1Cl)c1ccc(OC(F)F)c(OCC2CC2)c1 [Roflumilast] | 0.14 µM | – | > 100 µM | 0.296 | 0.015 µM |
| COc1c2c(cc3c1-c1c(cc4c(c1OC)OCO4)CC(C)C(C)C3)OCO2 (centres undefined) [Schisandrin C] | > 100 µM | – | 2.06 µM | 0.61 | 11.1 µM |
| C/C=C(/C)C(=O)O[C@H]1c2cc(OC)c(OC)c(OC)c2-c2c(cc3c(c2OC)OCO3)C[C@H](C)[C@]1(C)O [Schisantherin B] | > 100 µM | – | 65.9 µM | 0.365 | 100 µM |
| C[C@H]1CC[C@@]2(OC1)O[C@H]1C[C@H]3[C@@H]4CC[C@@H]5C[C@@H](O[C@@H]6O[C@H](CO)[C@H](O)[C@H](O)[C@H]6O[C@@H]6O[C@H](CO)[C@@H](O)[C@H](O)[C@H]6O)CC[C@]5(C)[C@H]4CC[C@]3(C)[C@H]1[C@@H]2C [Timosaponin AIII] | > 100 µM | – | > 100 µM | 0.935 | > 100 µM |
| N#C/C(=C\c1ccc(O)c(O)c1)C(=O)NCCCc1ccccc1 [Tyrphostin AG 555] | > 100 µM | – | 1.13 µM | 0.494 | > 100 µM |
| Ic1cccc(/C=N/Nc2nc(N3CCOCC3)nc(N(c3ccccc3)c3ccccc3)n2)c1 [Vacuolin-1] | > 100 µM | – | > 100 µM | 0.271 | 33.3 µM |
| Cc1ccc(NC(=O)C(=O)NC2CC(C)(C)NC(C)(C)C2)cc1 [YYA-021] | 33.3 µM | – | > 100 µM | 0.184 | 100 µM |
| Cc1cc(C)nc(NS(=O)(=O)c2ccc(NC(=S)NC(=O)COc3ccc(Br)cc3Cl)cc2)n1 [ZCL 278] | > 100 µM | – | > 100 µM | 0.221 | 100 µM |
